{
  "source": "patent US4707498A",
  "about": "“Fluorinated diaminoalkyne derivatives” (Merrell Dow Pharmaceuticals Inc., priority 1986, dated 1987)",
  "origin": "cited, not measured here",
  "test_system": "tumor",
  "details": "MGBG intravenously once or twice week",
  "data": [
    {"smiles": "CC(C=NNC(=N)N)=NNC(=N)N", "note": "[MGBG, methylglyoxal bis(guanylhydrazone)]", "values": [
      {"measurement": "complete disappearance of the disease (number of treated patients)", "setting": "65 treated patients", "result": "two of the 65"},
      {"measurement": "regression of the tumor", "setting": "patients in advanced stages of carcinoma, lymphoma, hepatoma, melanoma, leukemia or sarcoma", "result": "measurable regression of the tumor in many of the patients treated"}
    ]}
  ]
}
